Test results as given in publication PMC5931096, “A Phase I study of the novel immunomodulatory agent PG545 (pixatimod) in subjects with advanced solid tumours” (British Journal of Cancer, 2018).
“Also recorded” adds a separate entry of the source.

Assay: Phase I dose-escalation: safety, tolerability, DLT and MTD of weekly 1-h IV infusion
Format: in vivo
Procedure: The study was an open-label, multicentre, phase 1 dose-escalation study using a 3 + 3 design. The primary objective was to determine the MTD of weekly administered PG545 via IV infusion. Secondary objectives were to characterize safety, tolerability, clinical activity, PK and PD biomarkers.
Patients continued treatment until disease progression, unacceptable toxicity or withdrawal (either voluntarily or investigator-decision).
All patients were assessed for safety, those who received at least one dose of PG545 were evaluated for efficacy. Safety assessment included the incidence of all adverse events (AEs), irrespective of relationship to study drug, according to the National Cancer Institute Common Terminology Criteria for Adverse Events, version 4.0, and the incidence of patients experiencing dose modifications and/or premature discontinuation of study drug. Dose-limiting toxicities (DLTs) used to determine the MTD were defined as occurring during Cycle 1 of treatment only and related to PG545 according to investigator assessment. If no DLT occurred in the first three subjects, the next three-subject cohort was enrolled at the next highest available dose level. If a single DLT occurred, an additional three subjects was enrolled at the same dose level. Dose escalation continued until two subjects of the cohort experienced a DLT; this was defined as the toxic dose level. The dose-escalation phase was completed and MTD determined by reducing the dose to the next lowest dose compared to the toxic dose and expanding this cohort to at least 6 subjects.

## CC(C)CCC[C@@H](C)[C@H]1CC[C@H]2[C@@H]3CC[C@H]4C[C@@H](O[C@@H]5O[C@H](COS(=O)(=O)O)[C@@H](O[C@H]6O[C@H](COS(=O)(=O)O)[C@@H](O[C@H]7O[C@H](COS(=O)(=O)O)[C@@H](O[C@H]8O[C@H](COS(=O)(=O)O)[C@@H](OS(=O)(=O)O)[C@H](OS(=O)(=O)O)[C@H]8OS(=O)(=O)O)[C@H](OS(=O)(=O)O)[C@H]7OS(=O)(=O)O)[C@H](OS(=O)(=O)O)[C@H]6OS(=O)(=O)O)[C@H](OS(=O)(=O)O)[C@H]5OS(=O)(=O)O)CC[C@]4(C)[C@H]3CC[C@]12C [PG545]
25 mg, N = 3
  Acute pulmonary oedema, related AE leading to discontinuation: 0 n (%)
  Acute pulmonary oedema, related serious AE: 0 n (%)
  Acute pulmonary oedema, related severe AE: 0 n (%)
  Blood cholesterol increased, related severe AE: 0 n (%)
  Blood cholesterol increased, treatment-related AE: 0 n (%)
  Blood pressure increased, related severe AE: 0 n (%)
  Chills, related AE leading to discontinuation: 0 n (%)
  Chills, related severe AE: 0 n (%)
  Chills, treatment-related AE: 0 n (%)
  Decreased appetite, treatment-related AE: 0 n (%)
  Diarrhoea, treatment-related AE: 0 n (%)
  Epistaxis, related AE leading to discontinuation: 0 n (%)
  Epistaxis, related serious AE: 0 n (%)
  Epistaxis, related severe AE: 0 n (%)
  Fatigue, related severe AE: 0 n (%)
  Fatigue, treatment-related AE: 0 n (%)
  Headache, treatment-related AE: 0 n (%)
  Hypercholesterolemia, treatment-related AE: 0 n (%)
  Hyperlipidaemia, related severe AE: 0 n (%)
  Hypertension, related AE leading to discontinuation: 0 n (%)
  Hypertension, related serious AE: 0 n (%)
  Hypertension, related severe AE: 0 n (%)
  Hypertension, treatment-related AE: 0 n (%)
  Hypovolaemia, related serious AE: 0 n (%)
  Infusion-related reaction, related serious AE: 0 n (%)
  Infusion-related reaction, related severe AE: 0 n (%)
  Infusion-related reaction, treatment-related AE: 0 n (%)
  Injection site reaction, treatment-related AE: 2 (67) n (%)
  Nausea, treatment-related AE: 0 n (%)
  Pyrexia, related AE leading to discontinuation: 0 n (%)
  Pyrexia, related serious AE: 0 n (%)
  Pyrexia, related severe AE: 0 n (%)
  Pyrexia, treatment-related AE: 0 n (%)
50 mg, N = 5
  Acute pulmonary oedema, related AE leading to discontinuation: 0 n (%)
  Acute pulmonary oedema, related serious AE: 0 n (%)
  Acute pulmonary oedema, related severe AE: 0 n (%)
  Blood cholesterol increased, related severe AE: 0 n (%)
  Blood cholesterol increased, treatment-related AE: 0 n (%)
  Blood pressure increased, related severe AE: 0 n (%)
  Chills, related AE leading to discontinuation: 1 (20) n (%)
  Chills, related severe AE: 1 (20) n (%)
  Chills, treatment-related AE: 1 (20) n (%)
  Decreased appetite, treatment-related AE: 2 (40) n (%)
  Diarrhoea, treatment-related AE: 1 (20) n (%)
  Epistaxis, related AE leading to discontinuation: 0 n (%)
  Epistaxis, related serious AE: 0 n (%)
  Epistaxis, related severe AE: 0 n (%)
  Fatigue, related severe AE: 1 (20) n (%)
  Fatigue, treatment-related AE: 2 (40) n (%)
  Headache, treatment-related AE: 0 n (%)
  Hypercholesterolemia, treatment-related AE: 0 n (%)
  Hyperlipidaemia, related severe AE: 0 n (%)
  Hypertension, related AE leading to discontinuation: 0 n (%)
  Hypertension, related serious AE: 0 n (%)
  Hypertension, related severe AE: 0 n (%)
  Hypertension, treatment-related AE: 1 (20) n (%)
  Hypovolaemia, related serious AE: 0 n (%)
  Infusion-related reaction, related serious AE: 0 n (%)
  Infusion-related reaction, related severe AE: 0 n (%)
  Infusion-related reaction, treatment-related AE: 0 n (%)
  Injection site reaction, treatment-related AE: 0 n (%)
  Nausea, treatment-related AE: 4 (80) n (%)
  Pyrexia, related AE leading to discontinuation: 1 (20) n (%)
  Pyrexia, related serious AE: 1 (20) n (%)
  Pyrexia, related severe AE: 1 (20) n (%)
  Pyrexia, treatment-related AE: 3 (60) n (%)
100 mg cohort
  Dose-limiting toxicities (DLTs): No DLTs were noted; also recorded: no further DLT observed
  Hypertension: not observed
100 mg, N = 6
  Acute pulmonary oedema, related AE leading to discontinuation: 0 n (%)
  Acute pulmonary oedema, related serious AE: 0 n (%)
  Acute pulmonary oedema, related severe AE: 0 n (%)
  Blood cholesterol increased, related severe AE: 0 n (%)
  Blood cholesterol increased, treatment-related AE: 1 (17) n (%)
  Blood pressure increased, related severe AE: 0 n (%)
  Chills, related AE leading to discontinuation: 0 n (%)
  Chills, related severe AE: 0 n (%)
  Chills, treatment-related AE: 0 n (%)
  Decreased appetite, treatment-related AE: 1 (17) n (%)
  Diarrhoea, treatment-related AE: 2 (33) n (%)
  Epistaxis, related AE leading to discontinuation: 0 n (%)
  Epistaxis, related serious AE: 0 n (%)
  Epistaxis, related severe AE: 0 n (%)
  Fatigue, related severe AE: 1 (17) n (%)
  Fatigue, treatment-related AE: 2 (33) n (%)
  Headache, treatment-related AE: 2 (33) n (%)
  Hypercholesterolemia, treatment-related AE: 2 (33) n (%)
  Hyperlipidaemia, related severe AE: 1 (17) n (%)
  Hypertension, related AE leading to discontinuation: 0 n (%)
  Hypertension, related serious AE: 0 n (%)
  Hypertension, related severe AE: 0 n (%)
  Hypertension, treatment-related AE: 0 n (%)
  Hypovolaemia, related serious AE: 1 (17) n (%)
  Infusion-related reaction, related serious AE: 0 n (%)
  Infusion-related reaction, related severe AE: 0 n (%)
  Infusion-related reaction, treatment-related AE: 0 n (%)
  Injection site reaction, treatment-related AE: 0 n (%)
  Nausea, treatment-related AE: 0 n (%)
  Pyrexia, related AE leading to discontinuation: 0 n (%)
  Pyrexia, related serious AE: 0 n (%)
  Pyrexia, related severe AE: 0 n (%)
